Key:
[1] = system: Arabidopsis WT seedling roots; experiment: Microscopy of root browning and root meristems, WT; format: in vivo, Arabidopsis thaliana
mik2-1 seedling roots = experiment: Microscopy of root meristems, mik2-1; format: in vivo, Arabidopsis thaliana; conditions: mik2-1, 1 µM, 48 h
[2] = system: MPK3, MPK4 and MPK6 phosphorylation, mik2-1 seedlings; experiment: MAPK assay (α-pERK1/2 immunoblot), mik2-1; format: in vivo, Arabidopsis thaliana; design: dose or concentration left out as unconfirmed; conditions: mik2-1, α-pERK1/2 immunoblot
Arabidopsis leaf disks = experiment: Ethylene production; format: in vivo, Arabidopsis thaliana; conditions: Fig. 2j, leaf disks of 4-week-old plants, peptides at 1 µM, 23 °C, 4 h, GC-FID
Protocol: Twelve leaves of 4-week-old plants grown on soil were excised into leaf disks of 0.25 cm^2, followed by overnight incubation in a 25 mL glass vial with 2 mL of ddH2O for recovery. Then, ddH2O was replaced by 1 mL of peptides at 1 µM, and the vials were capped immediately with a rubber stopper and incubated at 23 °C with gentle agitation for 4 h. One mL of the vial headspace was injected into a TRACE^TM 1310 Gas Chromatograph (Thermo Fisher Scientific) with FID supported by Chromeleon 7 for quantitation.

[3] = system: MYB51 promoter, pMYB51::GUS seedling roots; experiment: Histochemical GUS staining, pMYB51::GUS; format: in vivo, Arabidopsis thaliana; conditions: pMYB51::GUS seedlings, 1 µM, 3 h
Text: Stained samples were fixed with a 3:1 ethanol:acetic acid solution overnight and cleared by lactic acid and photographed with the Olympus SZX10 stereoscopic microscope equipped with DP27 camera.

BIK1 = BIK1 phosphorylation assay; format: cell-based, Arabidopsis thaliana; conditions: protoplasts expressing BIK1-HA, 1 μM, 15 min, mobility shift
Protocol: WT protoplasts were transfected with pHBT-35S::BIK1-HA for 12 h followed by treatment with 1 μM SCOOP peptides for 15 min.

[4] = system: RLK7^ECD-MIK2^TK/rlk7 and RLK7/rlk7 transgenic seedlings; experiment: Root growth assay, rlk7, RLK7/rlk7 and RLK7^ECD-MIK2^TK/rlk7 seedlings; format: in vivo, Arabidopsis thaliana
Text: The BAK1 (AT4G33430), SERK4 (AT2G13790), BIK1 (AT2G39660), and MIK2 (AT4G08850) coding sequences (CDSs) were amplified by PCR from Col-0 cDNA using the primers containing BamHI at the 5′ end and StuI at the 3′ end. The PCR products were digested by BamHI and StuI, followed by ligation into the pHBT-FLAG or pHBT-HA vector to generate pHBT-35S::BAK1-FLAG, pHBT-35S::SERK4-FLAG, pHBT-35S::BIK1-HA, pHBT-35S::MIK2-HA, and pHBT-35S::MIK2-GFP constructs[24],[41],[62]. MIK2^ECD (residues 1–707) and BAK1^ECD (residues 1–220) were amplified by PCR from Col-0 cDNA and cloned into pFastBac-1 vector with a C-terminal 6× HIS tag[25],[62]. The fusion protein vectors carrying MIK2^ECD or BAK1^ECD were used for insect cell expression. To obtain the binary vector pCAMBIA1300-35S::RLK7, a 2907-bp RLK7 CDS was PCR-amplified from WT cDNA using gene-specific primers with KpnI and SalI at the 5′ and 3′ ends, respectively, followed by KpnI and SalI digestion and ligation into the pCAMBIA1300 vector. To generate the binary vector pCAMBIA1300 carrying the RLK7^ECD-MIK2^TK chimeric receptor gene, an 1824-bp fragment encoding RLK7^ECD was PCR-amplified from WT cDNA using a gene-specific forward primer with KpnI at the 5′ end and a gene-specific reverse primer with 8-bp overlapping sequence from the 5′ end of MIK2^TK, and a 1011-bp fragment encoding MIK2^TK using a gene-specific forward primer with 8-bp overlapping sequence from the 3′ end of RLK7 ^ECD and a gene-specific reverse primer with SalI at the 5′ end. RLK7^ECD was fused with MIK2^TK and inserted into the pUC19 vector using in-fusion recombinant enzymes (Clontech). […]
Cold stratified seeds were surface-sterilized with 70% (v/v) ethanol for 5 min and were sown on ½MS plates with or without peptides at indicated concentrations. Ten-day-old seedlings grown on plates vertically in a growth chamber were photographed, and the root lengths of seedlings were measured using Image J (http://rsb.info.nih.gov/ij/).

Substance	root browning ([1]; WT seedlings, prolonged treatment)	root meristem distortion ([1]; WT, 5-day-old seedlings, 1 µM, 48 h, PI staining)	root meristem distortion in mik2-1 (mik2-1 seedling roots)	MAPK activation in mik2 [2]	ethylene production (Arabidopsis leaf disks; repeat 1)	ethylene production (Arabidopsis leaf disks; repeat 2)	ethylene production (Arabidopsis leaf disks; repeat 3)	MYB51 promoter activity in roots [3]	BIK1 phosphorylation (BIK1)	root growth retardation ([4]; RLK7/rlk7 and RLK7^ECD-MIK2^TK/rlk7, 1 µM PIP1)	brown roots and darkened root-hypocotyl junctions ([4]; RLK7^ECD-MIK2^TK/rlk7)	root growth retardation vs RLK7/rlk7 ([4]; RLK7^ECD-MIK2^TK/rlk7, 1 µM PIP1)
PNGDIFTGPSGSGHGGGR [SCOOP10B, synthesized SCOOP peptide corresponding to the SxS motif]	led to brown roots	distorted root meristems	not observed in mik2-1	abolished in mik2 mutants	2.0449 ppm	1.4942 ppm	1.8726 ppm	induced the promoter activities of MYB51	led to the phosphorylation of BIK1			
RLASGP(OH)SPRGRGH [PIP1, secreted peptide, ligand of RLK7]										restored the sensitivity to PIP1 treatment exhibiting root growth retardation	brown roots and darkened root-hypocotyl junctions	more substantial root growth retardation

From PMC8448819, “The Arabidopsis MIK2 receptor elicits immunity by sensing a conserved signature from phytocytokines and microbes” (Nature Communications, 2021)
